From patent US20070105782A1, “Protectant Combinations for Reducing Toxicities” (BOARD OF TRUSTEES OF SOUTHERN ILLINOIS UNIVERSITY, priority 2005, published 2007)

Columns and labels:
male Wistar rats = details: pretreated 30 minutes prior to CDDP infusion
Method: Complete data sets are obtained for five groups of five male Wistar rats (280-421 g). All animals are anesthetized with 1 ml/mg IM of Rompun cocktail (a solution containing 86.21 mg/ml ketamine and 2.76 mg/ml xylazine) prior to all injections and testing. Anesthesia is supplemented as needed with half doses throughout testing. The five groups include: a treated control group which received a dose of CDDP dissolved in normal sterile saline (1 mg of CDDP/ml normal saline; solution pH 6.3) administered by i.p. infusion with a Harvard Apparatus Infusion Pump, over a 30 minute period, an untreated control group that received an equivalent volume of normal saline (pH 6.5) instead of CDDP, and three experimental groups that receive various doses of protectant combination (comprising two or more of methionine protectant agents, carnitine, N-acetylcysteine, magnesium ions, lipoic acid, ebselen, glutathione, and glutathione ester) within the ranges described below dissolved in 3-5 ml of normal saline (solution pH 6.6) delivered by slow (over 1-2 minutes) i.p. injection 30 minutes prior to the same CDDP infusion as the treated control group. Both CDDP (purchased from Sigma Chemical Co., St. Louis) and the protectant combinations are freshly prepared before each experiment.

[1] = cited from earlier work

## CSCC[C@@H](N)C(=O)O [D-methionine]
Male Wistar rats
  survival until the end of the study period: all of the animals in each of these groups are expected to survive
[1]; humans, except in L-methionine deprivation
  excreted without conversion to the L-isomer: 60-70%
[1]; in the human
  plasma levels compared with L-methionine: higher plasma levels than L-methionine
